Measurements reported in PMC10073488 (Frontiers in Pharmacology, 2023).

Experiments:
[1] = human, in vivo
Protocol: There were two studies in the project. Study 1 was under the fasting state, and study 2 was under the fed state. […] The studies aimed to compare the PK profiles and safeties of the T and R drugs. The study protocols were approved by the Wuxi People’s Hospital Ethics Committee (Approval No. 2018LLPJ-I-14-03) and were conducted at Wuxi People’s Hospital Affiliated to Nanjing Medical University, Jiangsu Province, China. The studies were performed in accordance with the principles of the World Medical Association (WMA) Declaration of Helsinki. All volunteers signed written informed consents before enrollment.
Subjects received a single oral dose of the T or R drug in each period in a randomized way under either fasting or fed conditions, with a wash-out of 7 days. For the fed study, subjects finished the high-fat diet (containing protein 16.52%, fat 56.85%, carbohydrate 26.63%) in 30 min and were given the drug with 240 ml of a 20% glucose solution in water 30 min after they started eating the diet. For the fasting study, the drug was administered with 240 ml of a 20% glucose solution in water under the fasting state. An overnight fast for at least 10 h before administration was required. Subjects were not allowed to drink water 1 h before and after dosing, and lunch could be served only 4 h after dosing for both studies.
Venous blood samples (4 ml) were collected from an intravenous indwelling catheter before dosing and at 0.5, 1, 1.5, 2, 2.5, 3, 3.5, 4, 4.5, 5, 6, 7, 8, 9, 10, 11, 12, 14, 24, 32, 48, and 72 h after dosing for both fed and fasting studies. Blood samples were drawn into BD Vacutainers® with ethylene diamine tetra acetic acid (EDTA) anticoagulant. Plasma was separated by centrifugation at 2150 ± 5 g for 10 min at 2°C–8°C and stored at −20°C within 2 h after sampling and transferred to −80°C within 24 h.
Study data were summarized by descriptive statistics. The statistical analyses were performed using SAS® version 9.4. For the comparisons, Cmax, AUC0–t, and AUC0–∞ were analyzed using linear mixed models after logarithmic transformation. […] was achieved if the 90% CI of each parameter geometric means ratio (GMR) test/reference fell between 0.8–1.25. The statistical analysis included treatment, period, sequence, and subject-within-sequence as fixed effects. Tmax was compared between treatments using the non-parametric Wilcoxon signed-rank test.

[2] = design: method as in Schnaars et al., 2023; conditions: metformin 1000 mg, IR; fed condition; ref Schnaars et al., 2023; cited from earlier work
[3] = Published BE studies of sitagliptin (100 mg) and sitagliptin–metformin (50/1000 mg) IR fixed-dose combination; assay type: in vivo; conditions: sitagliptin (100 mg) alone; fasting condition; published values (ref Schnaars et al., 2023) compared with own data
[4] = sitagliptin, ref FDA, 2005, 2006, 2012; cited from earlier work

Cmax, AUC0−t, AUC0−∞ higher than the data of this study [3] | Structure (SMILES) | Intra-individual variation of AUC0-t [1] [%] | Intra-individual variation of AUC0-∞ [1] [%] | Intra-individual variation of Cmax [1] [%] | Cmax [2] [ng/mL] | median Tmax [2] [h] | t1/2 [4]
– | CN(C)C(=N)N=C(N)N [Metformin, metformin] | 13.01 | 13.31 | 11.61 | 1.59289 | 3.5 | –
14–32% | N[C@@H](CC(=O)N1CCn2c(nnc2C(F)(F)F)C1)Cc1cc(F)c(F)cc1F [Sitagliptin, sitagliptin] | 6.05 | 6.04 | 19.42 | – | – | around 12 h
